No end group written: not given here.
What was measured:
[1] = tested on: Pseudomonas aeruginosa (ATCC 27853); format: cell-based; conditions: for MBC value (μg/ml) against Pseudomonas aeruginosa: ATCC 27853, 1 h; for MBC Pseudomonas aeruginosa: Tables 11-15, no unit printed
Description: (§1) Romo1 protein comprises two α-helices. The present inventors synthesized the α-helix 2 region having both hydrophilicity and hydrophobicity, and evaluated the antibacterial activity thereof using minimum bactericidal concentration (MBC) assay. The α-helix 2 region was named KU-5279 (the 52-79 amino acid region of Romo1 protein). Then, in order to identify peptides that are beneficial for human application and have excellent antibacterial activity, the present inventors synthesized several peptides comprising a sequence of contiguous amino acids starting at any amino acid selected from the 52-79 amino acid region of Romo1 protein, and comparatively evaluated the antibacterial activities of the peptides by minimum bactericidal concentration assay (See Table 1 below for information on each peptide). Evaluation of the antibacterial activity of each peptide by minimum bactericidal concentration assay was specifically performed as follows. First, each of Pseudomonas aeruginosa (ATCC 27853) and Staphylococcus aureus (ATCC 29213) was cultured in 3% (w/v) TSB (Tryptic Soy Broth) liquid medium at 37° C. and 200 rpm for 4 hours, and then further cultured under the same conditions for 3 hours to a concentration of 5×10^6 CFU/ml. Strain solutions were prepared by diluting each of the further cultured strains with SP (sodium phosphate; 10 mM sodium phosphate, 1% TSB) buffer to a final concentration of 2×10^5 CFU/ml. Then, each peptide at varying concentrations (0 μg/ml to 300 μg/ml) was dispensed into each well of a 96-well microplate, and 100 μl (1×10^5 CFU/ml) of each of the prepared strain solutions was added thereto, mixed therewith, and allowed to react with the peptide in an incubator at 37° C. for 1 hour. In addition, 30 g/L of TS (tryptic soy) and 15 g/L of agar were dissolved in distilled water and sterilized, and then 25 ml of the solution was poured onto a 100 mm round plate and solidified at room temperature for one day or more, thereby preparing a TS agar plate. 10 μl of each reaction solution of the peptide and the strain was plated on the TS agar plate at a constant size, and incubated in an incubator at 37° C. for 18 hours, and then colony formation on the plate was checked. The minimum bactericidal concentration was defined as the minimum concentration of the peptide at which no colony was formed, and the experimental results are shown in Table 1 below.

[2] = tested on: Staphylococcus aureus (ATCC 29213); format: cell-based; conditions: for MBC value (μg/ml) against Staphylococcus aureus: ATCC 29213, 1 h; for MBC Staphylococcus aureus: Tables 11-15, no unit printed
Description: as §1

[3] = tested on: methicillin-resistant Staphylococcus aureus (ATCC 33591); conditions: Tables 11-15, no unit printed
Protocol: First, each of Pseudomonas aeruginosa (ATCC 27853) and Staphylococcus aureus (ATCC 29213) was cultured in 3% (w/v) TSB (Tryptic Soy Broth) liquid medium at 37° C. and 200 rpm for 4 hours, and then further cultured under the same conditions for 3 hours to a concentration of 5×10^6 CFU/ml. Strain solutions were prepared by diluting each of the further cultured strains with SP (sodium phosphate; 10 mM sodium phosphate, 1% TSB) buffer to a final concentration of 2×10^5 CFU/ml.
(§2) Then, each peptide at varying concentrations (0 μg/ml to 300 μg/ml) was dispensed into each well of a 96-well microplate, and 100 μl (1×10^5 CFU/ml) of each of the prepared strain solutions was added thereto, mixed therewith, and allowed to react with the peptide in an incubator at 37° C. for 1 hour.
In addition, 30 g/L of TS (tryptic soy) and 15 g/L of agar were dissolved in distilled water and sterilized, and then 25 ml of the solution was poured onto a 100 mm round plate and solidified at room temperature for one day or more, thereby preparing a TS agar plate. 10 μl of each reaction solution of the peptide and the strain was plated on the TS agar plate at a constant size, and incubated in an incubator at 37° C. for 18 hours, and then colony formation on the plate was checked.
Specifically, each type of bacteria was cultured in 3% (w/v) TSB (Tryptic Soy Broth) liquid medium at 37° C. and 200 rpm for 4 hours, and then further cultured under the same conditions for 3 hours to a concentration of 5×10^6 CFU/ml. Strain solutions were prepared by diluting each of the […] of 2×10^5 CFU/ml.
as §2, with “Then, the KU-5878” for “Then, each”
In addition, 10 μl of each reaction solution of the peptide and the strain was plated on the TS agar plate at a constant size, and incubated in an incubator at 37° C. for 18 hours, and then colony formation on the plate was checked.

[4] = tested on: CRPA; test: MBC, evaluation of antibacterial activities of KU-5878 variants; format: cell-based; conditions: Tables 11-15, no unit printed
Protocol: Variants were prepared by deleting one amino acid from the amino acid sequence of KU-5878 (SEQ ID NO: 13), and the antibacterial activities thereof were evaluated.
Variants were prepared by deleting two or more amino acids from the amino acid sequence of KU-5878 (SEQ ID NO: 13), and the antibacterial activities thereof were evaluated.
One amino acid in the amino acid sequence of KU-5878 (SEQ ID NO: 13) was substituted, and the antibacterial activities of the peptides were evaluated.
Substitutions of Q62K, S63K and T66K were sequentially added to the amino acid sequence of KU-5878-T59K, and the antibacterial activities of the peptides were evaluated.
An amino acid repeat sequence was added to the C-terminus of KU-5878, and the antibacterial activities of the peptides were evaluated. According to Table 15 below, when the R (arginine) repeat sequence or K (lysine) sequence was added to the C-terminus of KU-5878, the antibacterial activity of the peptide increased.

KTMMQSGGTFGTFMAIGMAIR [KU-5878-G76A]
MBC value (μg/ml) against Pseudomonas aeruginosa [1]: >400 µg/mL | MBC Pseudomonas aeruginosa [1]: > 300 µg/mL | MBC value (μg/ml) against Staphylococcus aureus [2]: >400 µg/mL | MBC Staphylococcus aureus [2]: > 300 µg/mL | MBC MRSA [3]: > 300 µg/mL | MBC CRPA [4]: > 300 µg/mL

KTMM-SGGTFGTFMAIGMGIR [Peptide 5878-d62Q]
MBC Pseudomonas aeruginosa [1]: 100 µg/mL | MBC Staphylococcus aureus [2]: 90 µg/mL | MBC MRSA [3]: 100 µg/mL | MBC CRPA [4]: 100 µg/mL

KTMMQSGGTFGTFMAWGMGIR [KU-5878-I73W]
MBC value (μg/ml) against Pseudomonas aeruginosa [1]: 300 µg/mL | MBC Pseudomonas aeruginosa [1]: 300 µg/mL | MBC value (μg/ml) against Staphylococcus aureus [2]: 300 µg/mL | MBC Staphylococcus aureus [2]: 300 µg/mL | MBC MRSA [3]: > 300 µg/mL | MBC CRPA [4]: 300 µg/mL

KTMMQSGGTFGTF-AIG-GIR [5878-d71M, d75M]
MBC Pseudomonas aeruginosa [1]: 300 µg/mL | MBC Staphylococcus aureus [2]: 250 µg/mL | MBC MRSA [3]: 300 µg/mL | MBC CRPA [4]: 300 µg/mL

KTMMQSGGTFGAFMAIGMGIR [KU-5878-T69A]
MBC Pseudomonas aeruginosa [1]: 300 µg/mL | MBC Staphylococcus aureus [2]: 300 µg/mL | MBC MRSA [3]: 300 µg/mL | MBC CRPA [4]: 300 µg/mL

KTMMQSGGAFGTFMAIGMGIR [KU-5878-T66A]
MBC Pseudomonas aeruginosa [1]: > 300 µg/mL | MBC Staphylococcus aureus [2]: > 300 µg/mL | MBC MRSA [3]: > 300 µg/mL | MBC CRPA [4]: > 300 µg/mL

KTMMHSGGTFGTFMAIGMGIR [KU-5878-Q62H]
MBC Pseudomonas aeruginosa [1]: > 300 µg/mL | MBC Staphylococcus aureus [2]: > 300 µg/mL | MBC MRSA [3]: > 300 µg/mL | MBC CRPA [4]: > 300 µg/mL

KTMMQSGGTFGTFMAIG-GIR [Peptide 5878-d75M]
MBC Pseudomonas aeruginosa [1]: 100 µg/mL | MBC Staphylococcus aureus [2]: 100 µg/mL | MBC MRSA [3]: 110 µg/mL | MBC CRPA [4]: 100 µg/mL

KTMMRSGGTFGTFMAIGMGIR [KU-5878-Q62R]
MBC Pseudomonas aeruginosa [1]: 80 µg/mL | MBC Staphylococcus aureus [2]: 80 µg/mL | MBC MRSA [3]: 90 µg/mL | MBC CRPA [4]: 80 µg/mL

KTMMQSGGT-GTFMAIGMGIR [Peptide 5878-d67F]
MBC Pseudomonas aeruginosa [1]: 200 µg/mL | MBC Staphylococcus aureus [2]: 200 µg/mL | MBC MRSA [3]: 200 µg/mL | MBC CRPA [4]: 200 µg/mL

GKTMMQSGGTFGTFMAIGMGIR [KU-5778]
MBC value (μg/ml) against Pseudomonas aeruginosa [1]: 300 µg/mL | MBC value (μg/ml) against Staphylococcus aureus [2]: 280 µg/mL

KT-MQSGGTFGTFM-IG-GIR [5878-d60M, d72A, d75M]
MBC Pseudomonas aeruginosa [1]: 300 µg/mL | MBC Staphylococcus aureus [2]: 280 µg/mL | MBC MRSA [3]: 300 µg/mL | MBC CRPA [4]: 300 µg/mL

KTMMQSGGTFGTFMAKGMGIR [KU-5878-I73K]
MBC value (μg/ml) against Pseudomonas aeruginosa [1]: >300 µg/mL | MBC Pseudomonas aeruginosa [1]: > 300 µg/mL | MBC value (μg/ml) against Staphylococcus aureus [2]: >300 µg/mL | MBC Staphylococcus aureus [2]: > 300 µg/mL | MBC MRSA [3]: > 300 µg/mL | MBC CRPA [4]: > 300 µg/mL

KTMMQS-GTFGTF-AIGM-IR [5878-d64G, d71M, d76G]
MBC Pseudomonas aeruginosa [1]: 200 µg/mL | MBC Staphylococcus aureus [2]: 200 µg/mL | MBC MRSA [3]: 200 µg/mL | MBC CRPA [4]: 200 µg/mL

— patent US12053506B2, “Romo1-derived antimicrobial peptides and variants thereof” (priority 2019, dated 2024)
